Measurements: ChEMBL document CHEMBL5532740, “Optimization of a Novel DEL Hit That Binds in the Cbl-b SH2 Domain and Blocks Substrate Binding” (ACS Med Chem Lett, 2024)

Legend:
[1] = target: T1, E3 ubiquitin-protein ligase CBL-B (Homo sapiens, UniProt Q13191); test: Inhibition of active phospho Cbl-b (unknown origin) using His-phospho ZAP70 as substrate incubated for 30 mins followed by substrate addition and measured after 30 mins by TR-FRET assay
[2] = target: T1, E3 ubiquitin-protein ligase CBL-B; test: Binding affinity to N-terminal Avi-tagged biotinylated human Cbl-b (40 to 426 residues) expressed in Escherichia coli by SPR assay

T1 sequence (Q13191 whole entry, the tested form may be a part): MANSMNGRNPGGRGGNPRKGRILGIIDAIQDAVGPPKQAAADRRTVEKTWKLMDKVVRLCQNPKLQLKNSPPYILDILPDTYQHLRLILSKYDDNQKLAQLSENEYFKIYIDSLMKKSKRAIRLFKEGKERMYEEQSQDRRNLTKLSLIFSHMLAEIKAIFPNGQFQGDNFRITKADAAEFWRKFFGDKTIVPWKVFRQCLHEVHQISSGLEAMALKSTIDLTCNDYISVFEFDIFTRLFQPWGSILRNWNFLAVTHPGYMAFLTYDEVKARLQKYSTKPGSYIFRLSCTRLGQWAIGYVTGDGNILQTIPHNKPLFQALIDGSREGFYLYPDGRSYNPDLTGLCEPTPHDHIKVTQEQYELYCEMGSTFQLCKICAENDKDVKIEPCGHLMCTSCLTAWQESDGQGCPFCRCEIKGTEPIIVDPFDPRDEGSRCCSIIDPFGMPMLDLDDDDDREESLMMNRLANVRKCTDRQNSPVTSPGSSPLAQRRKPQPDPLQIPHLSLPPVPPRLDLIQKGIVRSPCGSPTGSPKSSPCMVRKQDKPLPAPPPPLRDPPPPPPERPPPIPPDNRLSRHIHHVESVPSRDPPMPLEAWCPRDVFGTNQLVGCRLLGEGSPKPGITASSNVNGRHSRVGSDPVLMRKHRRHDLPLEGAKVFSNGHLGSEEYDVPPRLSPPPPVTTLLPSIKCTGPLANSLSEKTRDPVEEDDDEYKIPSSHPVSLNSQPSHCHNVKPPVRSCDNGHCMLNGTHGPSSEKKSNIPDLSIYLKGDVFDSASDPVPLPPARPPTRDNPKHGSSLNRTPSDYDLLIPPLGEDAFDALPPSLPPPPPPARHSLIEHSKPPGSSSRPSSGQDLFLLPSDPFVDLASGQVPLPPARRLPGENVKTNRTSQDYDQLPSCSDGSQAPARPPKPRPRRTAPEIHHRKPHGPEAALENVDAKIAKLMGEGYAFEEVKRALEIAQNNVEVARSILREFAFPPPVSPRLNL

IC50 [1]	Kd [2]	Compound
300 nM	–	CCN1C(=O)[C@H](C)N(C(=O)Cc2c(OC)ccc3c2Oc2c(ccc(OC)c2CC(=O)O)C3(C)C)[C@@H]1c1cc([N+](=O)[O-])cc(OC)c1OCC(=O)O
> 20000 nM	–	CCOc1c(OC)cc([N+](=O)[O-])cc1[C@@H]1N(C)C(=O)[C@H](C)N1C(=O)Cc1c(OC)ccc2c1Oc1c(ccc(OC)c1C(=O)NS(C)(=O)=O)C2(C)C
340 nM	280 nM	COc1ccc2c(c1CC(=O)O)Oc1c(ccc(OC)c1CC(=O)N1[C@H](c3cc([N+](=O)[O-])cc(OC)c3OCC(=O)O)N(C)C(=O)[C@@H]1C)C2(C)C
> 20000 nM	44000 nM	COc1ccc2c(c1CC(=O)O)Oc1c(ccc(OC)c1CC(=O)N1[C@@H](C)C(=O)N(C)[C@@H]1c1cc([N+](=O)[O-])cc(OC)c1OCC(=O)O)C2(C)C
890 nM	–	CCOC(=O)COc1c(OC)cc([N+](=O)[O-])cc1[C@@H]1N(C)C(=O)[C@H](C)N1C(=O)Cc1c(OC)ccc2c1Oc1c(ccc(OC)c1CC(=O)O)C2(C)C
770 nM	–	CC[C@H]1C(=O)N(C)[C@@H](c2cc([N+](=O)[O-])cc(OC)c2OCC(=O)O)N1C(=O)Cc1c(OC)ccc2c1Oc1c(ccc(OC)c1CC(=O)O)C2(C)C
